Reference: ChEMBL document CHEMBL5356962, “Synthesis, activity, and their relationships of 2,4-diaminonicotinamide derivatives as EGFR inhibitors targeting C797S mutation” (Bioorg Med Chem Lett, 2024)

Columns and labels:
[1] = molecular target: Epidermal growth factor receptor (Homo sapiens, UniProt P00533, C797S/L858R/T790M); assay: Inhibition of EGFR L858R/T790M/C797S mutant (unknown origin) phosphorylation
[2] = molecular target: Epidermal growth factor receptor (Homo sapiens, UniProt P00533); assay: Inhibition of wild-type EGFR (unknown origin) phosphorylation
Epidermal growth factor receptor (Homo sapiens, UniProt P00533), sequence (P00533 whole entry): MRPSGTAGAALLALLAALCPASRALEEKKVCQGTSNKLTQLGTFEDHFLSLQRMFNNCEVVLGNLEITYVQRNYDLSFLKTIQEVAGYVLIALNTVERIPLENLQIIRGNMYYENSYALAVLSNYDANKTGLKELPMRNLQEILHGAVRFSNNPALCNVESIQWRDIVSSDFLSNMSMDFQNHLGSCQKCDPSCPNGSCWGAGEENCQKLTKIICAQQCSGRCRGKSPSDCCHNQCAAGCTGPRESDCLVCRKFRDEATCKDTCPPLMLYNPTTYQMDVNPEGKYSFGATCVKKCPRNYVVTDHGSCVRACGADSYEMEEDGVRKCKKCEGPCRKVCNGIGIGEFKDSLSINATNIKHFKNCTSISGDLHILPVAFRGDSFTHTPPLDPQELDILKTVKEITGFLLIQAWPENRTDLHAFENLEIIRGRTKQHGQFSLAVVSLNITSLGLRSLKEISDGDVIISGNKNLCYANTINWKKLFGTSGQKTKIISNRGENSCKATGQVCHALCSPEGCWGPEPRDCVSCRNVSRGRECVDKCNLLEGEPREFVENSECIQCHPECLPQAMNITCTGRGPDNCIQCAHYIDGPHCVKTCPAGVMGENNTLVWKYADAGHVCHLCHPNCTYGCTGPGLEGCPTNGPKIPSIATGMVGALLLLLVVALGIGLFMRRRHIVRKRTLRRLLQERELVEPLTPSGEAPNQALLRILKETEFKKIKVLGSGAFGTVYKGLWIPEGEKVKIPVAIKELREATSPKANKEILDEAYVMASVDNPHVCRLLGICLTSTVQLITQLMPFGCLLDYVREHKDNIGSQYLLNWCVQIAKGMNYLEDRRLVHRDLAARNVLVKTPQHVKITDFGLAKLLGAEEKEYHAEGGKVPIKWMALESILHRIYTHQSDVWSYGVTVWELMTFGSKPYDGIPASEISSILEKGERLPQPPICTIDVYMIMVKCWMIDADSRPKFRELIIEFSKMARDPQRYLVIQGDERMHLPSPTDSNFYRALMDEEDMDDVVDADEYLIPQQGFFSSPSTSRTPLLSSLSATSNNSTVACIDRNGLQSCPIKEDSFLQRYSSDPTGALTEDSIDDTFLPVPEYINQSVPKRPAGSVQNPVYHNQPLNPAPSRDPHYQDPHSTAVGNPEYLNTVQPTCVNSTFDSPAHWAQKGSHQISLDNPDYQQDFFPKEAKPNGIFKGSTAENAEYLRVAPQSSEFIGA

[3] = molecular target: Epidermal growth factor receptor (Homo sapiens, UniProt P00533, C797S/EX19DEL/T790M); assay: Inhibition of EGFR Del19/T790M/C797S mutant (unknown origin) phosphorylation
Epidermal growth factor receptor (Homo sapiens, UniProt P00533, C797S/EX19DEL/T790M), sequence (P00533 whole entry, looked up, stated change not applied): as the sequence (P00533 whole entry) above

BaF3 [4] = assay: Inhibition of cell proliferation of mouse BaF3 cells expressing EGFR L858R/T790M/C797S mutant (unknown origin); format: functional
BaF3 [5] = assay: Inhibition of cell proliferation of mouse BaF3 cells expressing EGFR Del19/T790M/C797S mutant (unknown origin); format: functional
BaF3 [6] = assay: Inhibition of cell proliferation of mouse BaF3 cells expressing wild-type EGFR (unknown origin); format: functional

Epidermal growth factor receptor (Homo sapiens, UniProt P00533, C797S/L858R/T790M), sequence (P00533 25-1210 T790M/C797S/L858R limits assumed): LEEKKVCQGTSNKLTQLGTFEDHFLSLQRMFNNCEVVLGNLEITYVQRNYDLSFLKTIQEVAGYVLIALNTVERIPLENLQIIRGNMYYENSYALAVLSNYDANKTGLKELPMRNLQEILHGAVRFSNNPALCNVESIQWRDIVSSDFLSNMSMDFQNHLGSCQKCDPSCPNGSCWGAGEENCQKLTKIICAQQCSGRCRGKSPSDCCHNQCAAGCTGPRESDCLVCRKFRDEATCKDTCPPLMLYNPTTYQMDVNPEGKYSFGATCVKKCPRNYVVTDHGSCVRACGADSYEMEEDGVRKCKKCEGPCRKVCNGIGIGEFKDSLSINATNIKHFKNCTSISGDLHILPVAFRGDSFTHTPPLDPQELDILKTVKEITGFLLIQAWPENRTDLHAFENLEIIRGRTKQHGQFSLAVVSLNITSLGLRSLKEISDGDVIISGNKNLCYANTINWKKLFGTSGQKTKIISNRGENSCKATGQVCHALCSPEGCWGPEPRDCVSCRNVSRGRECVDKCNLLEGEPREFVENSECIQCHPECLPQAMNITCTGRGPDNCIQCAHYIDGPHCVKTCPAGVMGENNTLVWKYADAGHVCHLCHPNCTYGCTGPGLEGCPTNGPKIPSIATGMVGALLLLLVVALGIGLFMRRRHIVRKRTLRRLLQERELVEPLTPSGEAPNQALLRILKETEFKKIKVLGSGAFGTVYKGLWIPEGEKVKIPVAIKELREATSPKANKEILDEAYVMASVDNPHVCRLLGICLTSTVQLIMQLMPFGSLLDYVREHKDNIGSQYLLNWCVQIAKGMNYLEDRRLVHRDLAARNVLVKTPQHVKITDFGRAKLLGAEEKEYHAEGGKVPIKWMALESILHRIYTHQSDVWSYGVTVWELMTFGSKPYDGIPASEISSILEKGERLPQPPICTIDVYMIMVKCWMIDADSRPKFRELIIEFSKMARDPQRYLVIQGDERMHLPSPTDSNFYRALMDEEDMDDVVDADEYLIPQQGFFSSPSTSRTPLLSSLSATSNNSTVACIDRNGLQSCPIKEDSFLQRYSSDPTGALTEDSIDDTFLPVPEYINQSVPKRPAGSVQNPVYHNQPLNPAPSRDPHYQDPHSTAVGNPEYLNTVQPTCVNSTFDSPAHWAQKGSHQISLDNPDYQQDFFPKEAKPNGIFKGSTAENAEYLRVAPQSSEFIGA

Row | SMILES | IC50 [1] | IC50 [2] | IC50 [3] | GI50 (BaF3 [4]; Mus musculus, BaF3) | GI50 (BaF3 [5]; Mus musculus, BaF3) | GI50 (BaF3 [6]; Mus musculus, BaF3) | GI50 (BaF3 [4]) | GI50 (BaF3 [5]) | GI50 (BaF3 [6])
1 | CC[C@H](C)Nc1cc(Nc2ccnc(-c3cnn(S(=O)(=O)C4CC4)c3)n2)ncc1C(=O)N(C)C | 0.3 µM | > 5 µM | 0.45 µM | – | – | – | – | – | –
2 | CC[C@H](C)Nc1cc(Nc2ccnc(-c3cnn(S(=O)(=O)C4CC4)c3)n2)ncc1C(=O)NCCN(C)C | 0.01 µM | 0.265 µM | 0.011 µM | 0.446 µM | 0.193 µM | 1.22 µM | – | – | –
3 | CC(C)Oc1cc(Nc2ccnc(-c3cnn(S(=O)(=O)C4CC4)c3)n2)ncc1C(=O)N1CC(C(C)(C)O)C1 | > 5 µM | > 5 µM | > 5 µM | – | – | – | – | – | –
4 | CC(C)Nc1cc(Nc2ccnc(-c3cnn(S(=O)(=O)C4CC4)c3)n2)ncc1C(=O)N1CC(C(C)(C)O)C1 | 0.051 µM | 0.552 µM | 0.072 µM | – | – | – | – | – | –
5 | CC[C@H](C)Nc1cc(Nc2ccnc(-c3cnn(S(=O)(=O)C4CC4)c3)n2)ncc1C(=O)NCCC(F)F | – | – | – | 0.081 µM | 0.035 µM | 1.08 µM | – | – | –
6 | CC[C@H](C)Nc1cc(Nc2ccnc(-c3cnn(S(=O)(=O)C4CC4)c3)n2)ncc1C(=O)NCCCF | 0.0037 µM | 0.055 µM | 0.0045 µM | 0.129 µM | 0.056 µM | 1.05 µM | – | – | –
7 | CC[C@H](C)Nc1cc(Nc2ccnc(-c3cnn(S(=O)(=O)C4CC4)c3)n2)ncc1C(=O)NC | 0.0036 µM | 0.045 µM | 0.0036 µM | 0.163 µM | 0.068 µM | 0.927 µM | – | – | –
8 | CCC(=O)c1cnc(Nc2ccnc(-c3cnn(S(=O)(=O)C4CC4)c3)n2)cc1N[C@@H](C)CC | 0.011 µM | 0.212 µM | 0.013 µM | – | – | – | – | – | –
9 | CCNC(=O)c1cnc(Nc2ccnc(-c3cnn(S(=O)(=O)C4CC4)c3)n2)cc1N[C@@H](C)CC | 0.0056 µM | 0.077 µM | 0.006 µM | 0.191 µM | 0.072 µM | 1.27 µM | – | – | –
10 | CCNS(=O)(=O)c1cnc(Nc2ccnc(-c3cnn(S(=O)(=O)C4CC4)c3)n2)cc1N[C@@H](C)CC | 4.88 µM | > 5 µM | > 5 µM | – | – | – | – | – | –
11 | CC[C@H](C)Nc1cc(Nc2ccnc(-c3cnn(S(=O)(=O)C4CC4)c3)n2)ncc1C(=O)N1CC(C(C)(C)O)C1 | 0.022 µM | 0.235 µM | 0.03 µM | – | – | – | – | – | –
12 | CC[C@H](C)Nc1cc(Nc2ccnc(-c3cnn(S(=O)(=O)C4CC4)c3)n2)ncc1C(=O)NC1CCOCC1 | – | – | – | 0.452 µM | 0.156 µM | 1.66 µM | – | – | –
13 | C=CC(=O)Nc1cc(Nc2nccc(-c3cn(C)c4ccccc34)n2)c(OC)cc1N(C)CCN(C)C [OSIMERTINIB] | – | – | – | – | – | – | 1.29 µM | 2.06 µM | 0.107 µM
